Test system: acute renal failure (ARF) rat model
Conditions: for plasma glucose: normal rats, 180 minutes, imeglimin and metformin 100 mg/h/kg, phenformin 50 mg/h/kg i.v.
Experimental: The creatinine level, correlated with the degree of the renal function failure, was tested for each rat 7 days after the first injection of gentamicin. […] The creatinine level was determined on the Monarch Chemistry Systems using the IL Test creatinine in rat plasma samples. This monochromatic analysis is based on the formation of a red colored complex between creatinine and picric acid under alkaline conditions.

effect on plasma lactate (rat, in vivo)	effect on plasma lactate level (rat, in vivo)	lactic acidosis (rat, in vivo)	plasma glucose after sharp fall (rat, in vivo)	Structure (SMILES)	plasma glucose	effect on plasma [HCO3−] (rat, in vivo)	plasma H+ concentration / metabolic acidosis signs (rat, in vivo)	plasma accumulation (rat, in vivo)
significantly increased plasma lactate	significantly increased lactatemia	induced lactic acidosis	1.9 ± 1 mmol/L	CN(C)C(=N)N=C(N)N [metformin]	4 ± 0.7 mmol/L	significantly decreased plasma concentration of [HCO3^−]	increased significantly plasma H+ concentration	plasma accumulation of metformin and imeglimin was observed
significantly increased plasma lactate	significantly increased lactatemia	induced lactic acidosis	2.4 ± 1.1 mmol/L	[H]/N=C(/N)N/C(=N/[H])NCCc1ccccc1 [phenformin]	2.9 ± 1 mmol/L	significantly decreased plasma concentration of [HCO3^−]	increased significantly plasma H+ concentration	
